Assay results taken from PubChem BioAssay (NCI).
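Each compound was tested at five concentrations against cells in 96-well plates for 48 hours. TGI: total growth inhibition.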

Tests used:
Assay in all cases: NCI-60 cell line screen, 48 h
[1] = test system: 786-0 renal
[2] = test system: A549 NSCLC
[3] = test system: ACHN renal
[4] = test system: BT-549 breast
[5] = test system: CAKI-1 renal
[6] = test system: CCRF-CEM leukemia
[7] = test system: COLO 205 colon
[8] = test system: DU-145 prostate
[9] = test system: EKVX NSCLC
[10] = test system: HCC-2998 colon
[11] = test system: HCT-116 colon
[12] = test system: HCT-15 colon
[13] = test system: HL-60(TB) leukemia
[14] = test system: HOP-62 NSCLC
[15] = test system: HOP-92 NSCLC
[16] = test system: HS 578T breast
[17] = test system: HT29 colon
[18] = test system: IGROV1 ovarian
[19] = test system: KM12 colon
[20] = test system: LOX IMVI melanoma
[21] = test system: M14 melanoma
[22] = test system: MDA-MB-231 breast
[23] = test system: MDA-MB-435
[24] = test system: MDA-N
[25] = test system: MOLT-4 leukemia
[26] = test system: NCI-H23 lung
[27] = test system: NCI-H460 lung
[28] = test system: NCI-H522 lung
[29] = test system: NCI/ADR-RES ovarian
[30] = test system: OVCAR-3 ovarian
[31] = test system: OVCAR-4 ovarian
[32] = test system: OVCAR-5 ovarian
[33] = test system: OVCAR-8 ovarian
[34] = test system: PC-3 prostate
[35] = test system: RPMI-8226 leukemia
[36] = test system: SF-268 CNS
[37] = test system: SF-295 CNS
[38] = test system: SF-539 CNS
[39] = test system: SK-MEL-2 melanoma
[40] = test system: SK-MEL-28 melanoma
[41] = test system: SK-MEL-5 melanoma
[42] = test system: SN12C renal
[43] = test system: SNB-19 CNS
[44] = test system: SNB-75 CNS
[45] = test system: SR leukemia
[46] = test system: SW-620 colon
[47] = test system: T-47D breast
[48] = test system: TK-10 renal
[49] = test system: U251 CNS
[50] = test system: UACC-257 melanoma
[51] = test system: UACC-62 melanoma
[52] = test system: UO-31 renal
[53] = test system: A498 renal
[54] = test system: MALME-3M melanoma
[55] = test system: MCF7 breast
[56] = test system: NCI-H226 lung
[57] = test system: RXF 393 renal
[58] = test system: SK-OV-3 ovarian

COc1c(Sc2c(SCSc3cnc4ccccc4c3Sc3cnc4ccccc4c3OC)cnc3ccccc23)cnc2ccccc12
TGI [1]: > 100 µM | TGI [2]: > 100 µM | TGI [3]: > 100 µM | TGI [4]: > 100 µM | TGI [5]: > 100 µM | TGI [6]: > 100 µM | TGI [7]: > 100 µM | TGI [8]: > 100 µM | TGI [9]: > 100 µM | TGI [10]: > 100 µM | TGI [11]: > 100 µM | TGI [12]: > 100 µM | TGI [13]: 26.3 µM | TGI [14]: > 100 µM | TGI [15]: 84 µM | TGI [16]: > 100 µM | TGI [17]: > 100 µM | TGI [18]: > 100 µM | TGI [19]: > 100 µM | TGI [20]: > 100 µM | TGI [21]: > 100 µM | TGI [22]: > 100 µM | TGI [23]: > 100 µM | TGI [24]: > 100 µM | TGI [25]: > 100 µM | TGI [26]: > 100 µM | TGI [27]: > 100 µM | TGI [28]: > 100 µM | TGI [29]: > 100 µM | TGI [30]: > 100 µM | TGI [31]: > 100 µM | TGI [32]: > 100 µM | TGI [33]: > 100 µM | TGI [34]: > 100 µM | TGI [35]: > 100 µM | TGI [36]: > 100 µM | TGI [37]: > 100 µM | TGI [38]: > 100 µM | TGI [39]: > 100 µM | TGI [40]: > 100 µM | TGI [41]: > 100 µM | TGI [42]: > 100 µM | TGI [43]: 77.3 µM | TGI [44]: > 100 µM | TGI [45]: 56.7 µM | TGI [46]: > 100 µM | TGI [47]: > 100 µM | TGI [48]: > 100 µM | TGI [49]: > 100 µM | TGI [50]: > 100 µM | TGI [51]: > 100 µM | TGI [52]: > 100 µM

CCOC(=O)C(=[N+]=[N-])C(=O)CSC#N
TGI [1]: > 100 µM | TGI [53]: > 100 µM | TGI [2]: > 100 µM | TGI [3]: 55.3 µM | TGI [4]: > 100 µM | TGI [5]: > 100 µM | TGI [6]: > 100 µM | TGI [7]: > 100 µM | TGI [8]: > 100 µM | TGI [9]: > 100 µM | TGI [11]: > 100 µM | TGI [12]: > 100 µM | TGI [13]: > 100 µM | TGI [14]: > 100 µM | TGI [16]: > 100 µM | TGI [17]: > 100 µM | TGI [18]: > 100 µM | TGI [19]: > 100 µM | TGI [20]: 61.9 µM | TGI [21]: > 100 µM | TGI [54]: > 100 µM | TGI [55]: > 100 µM | TGI [22]: > 100 µM | TGI [23]: > 100 µM | TGI [24]: > 100 µM | TGI [25]: > 100 µM | TGI [56]: > 100 µM | TGI [26]: > 100 µM | TGI [28]: 79.4 µM | TGI [29]: > 100 µM | TGI [31]: > 100 µM | TGI [32]: > 100 µM | TGI [33]: > 100 µM | TGI [34]: > 100 µM | TGI [57]: > 100 µM | TGI [36]: > 100 µM | TGI [37]: > 100 µM | TGI [38]: 47.1 µM | TGI [39]: > 100 µM | TGI [40]: > 100 µM | TGI [41]: > 100 µM | TGI [58]: > 100 µM | TGI [42]: > 100 µM | TGI [43]: > 100 µM | TGI [46]: > 100 µM | TGI [47]: > 100 µM | TGI [48]: > 100 µM | TGI [49]: > 100 µM | TGI [50]: > 100 µM | TGI [51]: > 100 µM | TGI [52]: > 100 µM
